# Measurements reported in patent US20250011368A1, “DLL3 TARGETING PEPTIDES AND CONSTRUCTS THEREOF” (MARIANA ONCOLOGY INC., priority 2023, published 2025).
# Bridge positions count the residues as written; N and C are the ends. Square brackets hold non-standard residues; d marks the D form. Peptide text beside a SMILES is read from it. * marks the point of attachment. DOTA = O=C(O)CN1CCN(CC(=O)O)CCN(CC(=O)*)CCN(CC(=O)O)CC1; 2Nal = N[C@@H](Cc1ccc2ccccc2c1)C(=O)O; 4Pal = N[C@@H](Cc1ccncc1)C(=O)O
# T1: human DLL3 (Homo sapiens, UniProt Q9NYJ7)
# T1 sequence (Q9NYJ7 27-618): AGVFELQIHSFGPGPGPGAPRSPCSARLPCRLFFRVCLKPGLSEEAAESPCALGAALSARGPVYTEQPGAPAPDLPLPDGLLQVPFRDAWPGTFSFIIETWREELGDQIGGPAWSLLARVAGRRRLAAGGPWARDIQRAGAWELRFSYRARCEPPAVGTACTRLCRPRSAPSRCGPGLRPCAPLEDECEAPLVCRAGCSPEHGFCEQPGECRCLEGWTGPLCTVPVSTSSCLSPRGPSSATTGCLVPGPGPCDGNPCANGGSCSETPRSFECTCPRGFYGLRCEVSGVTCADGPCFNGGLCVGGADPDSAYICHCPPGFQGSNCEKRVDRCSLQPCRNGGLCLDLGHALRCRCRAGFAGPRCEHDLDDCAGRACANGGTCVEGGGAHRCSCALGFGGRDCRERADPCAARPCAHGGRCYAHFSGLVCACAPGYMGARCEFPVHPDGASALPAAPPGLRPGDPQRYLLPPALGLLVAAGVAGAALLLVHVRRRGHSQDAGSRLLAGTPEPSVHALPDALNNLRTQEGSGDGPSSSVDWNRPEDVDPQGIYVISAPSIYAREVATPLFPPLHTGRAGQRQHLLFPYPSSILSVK
# T2: Biotinylated human DLL3 (Delta Like Canonical Notch Ligand 3) (human, UniProt Q9NYJ7 27-492, limits assumed, biotinylated (site not stated))
# T2 construct: also called Delta-like protein 3; biotinylated target ligand human DLL3
# T2 sequence: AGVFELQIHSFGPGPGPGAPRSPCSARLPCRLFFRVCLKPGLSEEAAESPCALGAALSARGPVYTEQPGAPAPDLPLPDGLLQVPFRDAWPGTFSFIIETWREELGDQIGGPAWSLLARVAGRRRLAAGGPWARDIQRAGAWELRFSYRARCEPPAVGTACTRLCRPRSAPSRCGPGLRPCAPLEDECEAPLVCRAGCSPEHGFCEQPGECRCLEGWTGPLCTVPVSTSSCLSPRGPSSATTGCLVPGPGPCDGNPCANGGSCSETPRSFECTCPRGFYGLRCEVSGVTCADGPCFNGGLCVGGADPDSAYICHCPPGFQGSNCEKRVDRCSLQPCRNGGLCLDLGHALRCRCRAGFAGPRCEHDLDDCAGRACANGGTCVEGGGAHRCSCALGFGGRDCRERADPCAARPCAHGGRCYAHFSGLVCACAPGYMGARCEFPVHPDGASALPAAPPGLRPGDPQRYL
# Experiments:
# CT26.DLL3 cells [1] = assay: Cell binding (total uptake) of [177Lu]Lu-test peptide, CT26.DLL3 cells; assay type: cell-based; conditions: 1 hour at 37° C.
# How it was run: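 CT26.DLL3 cells (5–25 million/condition) in 1% PBSA incubated 1 h at 37°C with [177Lu]Lu-labelled peptide (0.8 μCi in 300 μL), radiolabelled at pH ~5, 80°C. Cells pelleted, washed twice with cold PBS+1% BSA; bound and unbound fractions gamma-counted, uptake binned as ≤25%, 25–50%, >50%.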
# SHP-77 tumors = assay: Ex vivo biodistribution of radiolabeled peptides in nude mice bearing SHP-77 tumors; conditions: [177Lu]Lu labelling, nude mice bearing SHP-77 tumors (n = 3), 24 hours post-injection
# How it was run: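 Nude mice bearing SHP-77 xenografts (200-400 mm^3) or tumor-naïve mice (5-7 weeks) received an intravenous tail-vein bolus of [^177Lu]Lu-peptide and were euthanized at pre-set time points. Tissues were weighed and gamma-counted, with counts decay-corrected to injection time. Values are % IA/g per tissue from the injected activity of each mouse.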
# CT26.DLL3 cells [2] = assay: Internalization (out of bound fraction) of [177Lu]Lu-test peptide, CT26.DLL3 cells; assay type: cell-based; conditions: 1 hour at 37° C., glycine pH 2.5 wash
# Experimental: (§1) [^177Lu]LuCl3 was received from venders in HCl solution. For every mCi of [^177Lu]LuCl3 added to the reaction vial (1.5 mL Eppendorf vial), ammonium acetate buffer (0.2 M, pH 4.9, 100 μL, containing 1% w/v ascorbic acid and 6% v/v ethanol) and peptide conjugate (1 nmol). A peptide conjugate of the present disclosure is also referred to herein as a “chelator-peptide”. The pH of the solution was determined to be approximately 5 by using pH strips. The reaction vial was incubated at 80° C., 700 RPM for 17-20 minutes. A sample from the reaction was analyzed by RP-HPLC using an Agilent Infinity II 1260 HPLC to determine reaction completion and radiochemical purity of [^177Lu]Lu-chelator-peptide. HPLC conditions: Waters XBridge BEH C18 Column, 130 Å, 3.5 um, 4.6 mm×250 mm; mobile phase: Solvent A=water (with 0.1% formic acid), solvent B=acetonitrile (with 0.1% formic acid). Gradients: 25-45% B in 10 minutes, 45-65% B in 12 minutes, 65-90% in 6 minutes at a flow rate of 0.5 mL/minute. Required amounts of the product was formulated in 1% PBSA for cell studies.
# (§2) The study was conducted using SHP-77, CT26.WT, and CT26.DLL3 cells (Table 7) Adherent cell studies: The cells were cultured in appropriate culture media (20 mL) in tissue culture treated T150 flasks at 37° C. and 5% CO2. Adherent cells were detached (60-70% confluent) using 5 mL Versene at 37° C. for 3 minutes. After confirming the viability using countess and count of detached cells using Trypan blue, the cells were centrifuged at 4° C. for 5 minutes (1,000 rpm). The cell pellet obtained was washed once with PBS and resuspended in 1% PBSA to obtain the desired cell concentration (5-25 million cells/mL).
# (§3) Cell numbers used for the assay were in the range of 5 million cells/condition −25 million cells/condition.
# (§4) Total uptake: Cells were incubated with 300 μL (0.8 μCi) of the incubation buffer (containing radiolabeled peptide [^177Lu] Lu-test peptide) for 1 hour at 37° C. (Table 8). Post incubation, the cells were pelleted and washed 2 times using cold PBS+1% BSA. The supernatant and washes were combined and counted together as “unbound fraction” in a gamma counter. The cells were then resuspended in 300 μL of 1% PBS+1% BSA and counted in the gamma counter as “bound fraction”.
# Internalization: The resuspended cells in 300 μl of 1% PBSA and counted in the gamma counter as “bound fraction” were collected in 1.5 mL Eppendorf tube and pelleted. The pelleted cells were incubated with 300 μl of 50 mM Glycine pH=2.5 for 3 minutes and then pelleted discarding the supernatant. This process was repeated one more time. The pelleted cells were washed with 300 μl of cold 1% PBSA and then resuspended in 300 μl 0.3M NaOH. This was counted in the gamma counter as “internalized fraction”.
# (§5) In these Tables, “A” represents %≤25; “B” represents 25<%≤50; “C” represents %>50.
# human DLL3 = molecular target: T1, human DLL3; assay: Affinity determination by Surface Plasmon Resonance (SPR); assay type: binding; conditions: 25° C., biotinylated human DLL3 immobilized on streptavidin sensor chip, 1:1 binding model; read-out: SPR KD
# How it was run: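 Kinetic and affinity constants were derived by fitting sensorgrams to a 1:1 binding model. Graded compound concentrations flowed at 100 μL/minute in 20 mM phosphate running buffer with 2% DMSO over streptavidin-immobilized biotinylated human DLL3, reference-subtracted.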
# SHP-77 cells = assay: Cell binding (total uptake) of [177Lu]Lu-test peptide, SHP-77 cells; assay type: cell-based; conditions: SHP77 cells, 1 hour at 37° C., bound fraction
# Experimental: as §1, §2
# Suspension cell studies: The cells were cultured in appropriate culture media (20 mL) in tissue culture treated T150 flasks at 37° C. and 5% CO2. After confirming the viability and count of detached cells using Trypan blue, the cells were centrifuged at 4° C. for 5 minutes (1,000 rpm). The cell pellet obtained was washed once with PBS and resuspended in 1% PBSA to obtain the desired cell concentration (5-25 million cells/mL).
# as §3, §4, §5
# [3] = molecular target: T2, Biotinylated human DLL3 (Delta Like …); assay: SPR; letter grade, key in paragraph 614
# Experimental: Biotinylated target ligand human DLL3 was immobilized on a streptavidin sensor chip. A reference surface was set up for nonspecific binding and refractive index changes. For analysis of the kinetics of interactions, varying concentrations of samples were injected at a flow rate of 100 μL/minute using running buffer containing 20 mM phosphate buffer with 2.7 mM KCl, 137 mM NaCl, 0.05% Surfactant P20 and 2% DMSO. Sensorgram curves were fitted with 1:1 binding model, and affinity and kinetic parameters were obtained using Biacore Insight evaluation 4.0. software.
Molecule,% Binding (CT26.DLL3 cells [1]),kidney uptake (% IA/g) (SHP-77 tumors; kidney),tumor uptake (% IA/g) (SHP-77 tumors; tumor),% Internalization (out of bound fraction) (CT26.DLL3 cells [2]),Kd (human DLL3) [nM],% Binding (SHP-77 cells),Kd [3] [nM]
"CC[C@H](C)[C@H](NC(=O)[C@@H](NC(=O)[C@H](Cc1c[nH]c2ccccc12)NC(C)=O)[C@@H](C)O)C(=O)N[C@H]1CSSC[C@@H](C(=O)N[C@@H](Cc2c[nH]c3ccccc23)C(=O)N2CCC[C@H]2C(=O)N[C@H](CCCCNC(=O)CN2CCN(CC(=O)O)CCN(CC(=O)O)CCN(CC(=O)O)CC2)C(N)=O)NC(=O)[C@H](CC(=O)O)NC(=O)[C@H](Cc2cnc[nH]2)NC(=O)[C@H](Cc2ccc3ccccc3c2)NC(=O)[C@H](CC(N)=O)NC(=O)[C@H](CC(N)=O)NC1=O [compound 75, Ac-W-T-I-C(3)-N-N-(2Nal)-H-D-C(3)-W-P-[D-Lys(DOTA)]-NH2] (Ac-WTICNN[2Nal]HDCWP[dK](DOTA)-NH2; disulfide 4-10)",B (25<%≤50),D (% IA/g > 10 in kidney),A (0 < % IA/g ≤ 5 in tumor),B (25<%≤50),1 to 10,A (%≤25),
"Ac-WTICNN[2Nal][4Pal]DCWP[dK](DOTA)-NH2 (disulfide 4-10; also: natLu in the DOTA chelator, * = [natLu]Lu-labelled peptide) [[natLu]Lu-labelled Cpd No. 367]",,,,,,,≤ 1
Ac-WTICKN[2Nal]HDCWP[dK](DOTA)-NH2 (disulfide 4-10; SMILES CC[C@H](C)[C@H](NC(=O)[C@@H](NC(=O)[C@H](Cc1c[nH]c2ccccc12)NC(C)=O)[C@@H](C)O)C(=O)N[C@H]1CSSC[C@@H](C(=O)N[C@@H](Cc2c[nH]c3ccccc23)C(=O)N2CCC[C@H]2C(=O)N[C@H](CCCCNC(=O)CN2CCN(CC(=O)O)CCN(CC(=O)O)CCN(CC(=O)O)CC2)C(N)=O)NC(=O)[C@H](CC(=O)O)NC(=O)[C@H](Cc2c[nH]cn2)NC(=O)[C@H](Cc2ccc3ccccc3c2)NC(=O)[C@H](CC(N)=O)NC(=O)[C@H](CCCCN)NC1=O) [Cpd No. 451],,,,,,,≤ 1
